These results are taken from ChEMBL document CHEMBL5052835, “Slc26a3 inhibitors and use thereof” (2021).

Molecules are shown by their SMILES. Activity calls are given as the source filed them. The calls are words filed in the database; no cut-off is given here.

Assay [1] is described as follows: Inhibition of Slc26a3-mediated HCO3- influx/Cl efflux in rat FRT cells measured by fluorescence assay. It is filed as cell-based.
A further assay has as its system FRT. The experiment in a line: Inhibition of Slc26a3-mediated Cl-/ I- exchange in rat FRT cells assessed as half-life measured by fluorescence assay. It is filed as cell-based.
Assay [2] has as its target T1, Solute carrier family 26 member 6 (Mus musculus) (UniProt Q8CIW6).
T1 sequence (whole entry): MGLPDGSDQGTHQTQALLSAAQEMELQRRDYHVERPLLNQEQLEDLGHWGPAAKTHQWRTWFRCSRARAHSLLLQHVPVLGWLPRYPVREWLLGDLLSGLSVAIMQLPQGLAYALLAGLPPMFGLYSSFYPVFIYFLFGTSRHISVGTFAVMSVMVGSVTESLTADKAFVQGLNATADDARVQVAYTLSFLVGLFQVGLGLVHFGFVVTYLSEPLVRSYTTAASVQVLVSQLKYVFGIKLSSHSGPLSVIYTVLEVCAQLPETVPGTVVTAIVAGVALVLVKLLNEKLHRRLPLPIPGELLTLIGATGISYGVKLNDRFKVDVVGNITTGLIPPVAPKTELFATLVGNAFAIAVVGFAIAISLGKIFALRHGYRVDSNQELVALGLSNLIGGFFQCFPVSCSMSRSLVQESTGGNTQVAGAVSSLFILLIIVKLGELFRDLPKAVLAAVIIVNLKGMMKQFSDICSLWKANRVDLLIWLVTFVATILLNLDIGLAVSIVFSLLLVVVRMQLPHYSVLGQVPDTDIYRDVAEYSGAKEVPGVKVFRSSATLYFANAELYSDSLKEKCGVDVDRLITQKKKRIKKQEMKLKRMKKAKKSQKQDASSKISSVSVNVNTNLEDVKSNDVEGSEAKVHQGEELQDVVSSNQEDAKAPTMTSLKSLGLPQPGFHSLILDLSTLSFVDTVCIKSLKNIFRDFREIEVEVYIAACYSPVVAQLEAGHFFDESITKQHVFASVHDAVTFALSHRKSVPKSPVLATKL
The experiment in a line: Inhibition of mouse Slc26a6-mediated Cl-/ I- exchange at 10 uM measured by cell-based fluorescence assay.

Assay [3] is filed under the species Mus musculus. The experiment in a line: Inhibition of mouse Slc26a9-mediated Cl-/ I- exchange at 10 uM measured by cell-based fluorescence assay.
The species entered for assay [4] is Mus musculus. The experiment in a line: Inhibition of mouse CFTR at 10 uM measured by cell-based fluorescence assay.
Assay [5] relates to Colon. The experiment in a line: Inhibition of fluid absorption in distal colonic loop isolated from female CD-1 mouse at 10 uM assessed as effect on reduction in loop weight/length ratio. It is filed as functional, tissue-based.
For assay [6], the system named is Colon. Nature of the assay: Inhibition of fluid absorption in distal colonic loop isolated from female CD-1 mouse at 10 uM assessed as effect on reduction in loop weight/length ratio in presence of 10 microM tenapanor. It is filed as functional, tissue-based.
The test system of the next assay is Jejunum. Nature of the assay: Inhibition of fluid absorption in mid-jejunal loops isolated from female CD-1 mouse at 10 uM assessed as effect on reduction in loop weight/length ratio. It is filed as functional, tissue-based.
Assay [7] relates to Mus musculus. The experiment in a line: In vivo inhibition of slc26a3 in loperamide-induced constipation model of female CD-1 mouse at 5 mg/kg, po assessed as reduction in stool weight. It is filed as functional, organism-based.
Assay [8] concerns Mus musculus. Nature of the assay: In vivo inhibition of slc26a3 in loperamide-induced constipation model of female CD-1 mouse at 5 mg/kg, po assessed as reduction in pellet number. It is filed as functional, organism-based.
Assay [9] deals with Mus musculus. Nature of the assay: In vivo inhibition of slc26a3 in loperamide-induced constipation model of female CD-1 mouse at 5 mg/kg, po assessed as reduction in stool water content. It is filed as functional, organism-based.
For assay [10], the system named is Mus musculus. The experiment in a line: In vivo inhibition of slc26a3 in loperamide-induced constipation model of female CD-1 mouse at 5 mg/kg, po co-administered with tenapanor assessed as reduction in stool weight. It is filed as functional, organism-based.
The subject of assay [11] is Mus musculus. The experiment in a line: In vivo inhibition of slc26a3 in loperamide-induced constipation model of female CD-1 mouse at 5 mg/kg, po co-administered with tenapanor assessed as reduction in stool water content. It is filed as functional, organism-based.
The subject of assay [12] is Mus musculus. Nature of the assay: In vivo inhibition of slc26a3 in loperamide-induced constipation model of cystic fibrosis mouse at 5 mg/kg, po assessed as reduction in stool weight. It is filed as functional, organism-based.
For assay [13], the system named is Mus musculus. The experiment in a line: Inhibition of oxalate absorption in sodium oxalate-induced acute hyperoxaluria mouse model at 5 mg/kg, po. It is filed as functional, organism-based.
Assay [14] relates to Mus musculus. Nature of the assay: Inhibition of oxalate absorption in high oxalate and low calcium diet-induced oxalate nephropathy model of mouse at 5 mg/kg, po assessed as reduction in crystal deposition in kidney. It is filed as functional, organism-based.
The subject of assay [15] is HBE. The experiment in a line: Inhibition of ENaC in human HBE cells at 10 uM pretreated with amiloride assessed as effect on short-circuit current responses. It is filed as cell-based.
Assay [16] relates to HBE. The experiment in a line: Inhibition of CFTR in human HBE cells at 10 uM pretreated with forskolin assessed as effect on short-circuit current responses. It is filed as cell-based.
Assay [17] deals with HBE. The experiment in a line: Inhibition of CaCC in human HBE cells at 10 uM pretreated with ATP assessed as effect on short-circuit current responses. It is filed as cell-based.

In the case of `Cc1c(CC(=O)O)c(=O)oc2c(C)c(OCc3cccc(Br)c3)ccc12`, it took 100 nM to reach half-maximal inhibition in assay [1] (IC50). Further, the T1/2 in the assay with FRT is 30 s. Besides, the inhibition entry (in [2]; in the assay filed under Mus musculus [3]; in the assay filed under Mus musculus [4]; in the assay with HBE [15]; with HBE [16]; in the assay with HBE [17]) was “inactive” throughout. The inhibition entry in the assay with Colon [5], with Colon [6], with Jejunum, in the assay with Mus musculus [7], with Mus musculus [8] and in the assay with Mus musculus [9] was “Active” each time. The inhibition result in the assay with Mus musculus [10], in the assay with Mus musculus [11], in the assay with Mus musculus [12], with Mus musculus [13] and in the assay on Mus musculus [14] was “Active” each time.
